Results on 21 compounds are retold here after patent publication US9714231B2, “Pyrrolidine GPR40 modulators” (BRISTOL-MYERS SQUIBB COMPANY, priority 2012, dated 2017).

Structures can show the parent of a compound that is named as a salt.

For this assay, the target named is human GPR40 (Homo sapiens, UniProt O14842). The assay is described as follows: FDSS-based intracellular calcium assay (Human GRP40 in vitro assay). The class given is cell-based. Details: 3xFLAG; expressed in transfected cells. As to conditions: cells expressing GPR40, intracellular Ca2+ response, FDSS reader; read-out: hGPR40 EC50. How it is done: To conduct the fluorescent imaging plate reader (FLIPR)-based calcium flux assay to measure intracellular Ca^2+ response, cells expressing GPR40 are plated on 384 well plates (BD BIOCOAT® #356697) at a density of 20,000 cells/20 μL medium per well in phenol red and serum-free DMEM (GIBCO® #21063-029) and incubated overnight. Using BD kit #s 80500-310 or -301, the cells are incubated with 20 μL per well of Hank's buffered salt solution with 1.7 mM probenecid and Fluo-3 at 37° C. for 30 min. Compounds are dissolved in DMSO and diluted to desired concentrations with assay buffer and added to the cells as 3× solution (20 μL per well). Run fluorescence/luminescence reader FDSS (Hamamatsu) to read intracellular Ca^2+ response.
Chain of human GPR40 (O14842 whole entry): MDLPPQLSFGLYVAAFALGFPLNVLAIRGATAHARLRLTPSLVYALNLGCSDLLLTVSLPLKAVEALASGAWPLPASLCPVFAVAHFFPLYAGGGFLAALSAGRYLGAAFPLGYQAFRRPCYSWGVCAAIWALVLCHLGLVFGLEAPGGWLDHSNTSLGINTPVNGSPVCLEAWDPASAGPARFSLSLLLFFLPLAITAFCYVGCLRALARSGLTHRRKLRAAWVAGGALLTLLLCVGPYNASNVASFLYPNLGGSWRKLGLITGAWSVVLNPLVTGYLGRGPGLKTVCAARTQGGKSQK
By EC50 is commonly meant the concentration needed to bring the measured effect to its halfway point. `COc1ccc(F)c(N2C[C@@H](C)[C@@H](Oc3ccc(N4C[C@H](OC)C[C@@H]4CC(=O)O)cc3)[C@@H](C)C2)c1` [Example 56, 2-((2R,4R)-1-(4-(((3S,4S,5R)-1-(2-Fluoro-5-methoxyphenyl)-3,5-dimethylpiperidin-4-yl)oxy)phenyl)-4-methoxypyrrolidin-2-yl)acetic acid, HCl]: the EC50 came to 2500 nM.

Take `COc1ccc(Br)c(N2CCC(Oc3ccc(N4C[C@H](OC)C[C@@H]4CC(=O)O)cc3)CC2)c1` [Example 58, 2-((2R,4R)-1-(4-(1-(2-Bromo-5-methoxyphenyl)piperidin-4-yloxy)phenyl)-4-methoxypyrrolidin-2-yl)acetic acid, TFA]: the EC50 was 140 nM.

`COc1ccc(C(C)C)c(N2CCC(Oc3ccc(N4C[C@H](OC)C[C@@H]4CC(=O)O)cc3)CC2)c1` [Example 60, 2-((2R,4R)-1-(4-(1-(2-Isopropyl-5-methoxyphenyl)piperidin-4-yloxy)phenyl)-4-methoxypyrrolidin-2-yl)acetic acid, TFA]: the concentration giving a half-maximal response (EC50) came to 190 nM.

For the compound `CO[C@@H]1C[C@H](CC(=O)O)N(c2ccc(OC3CCN(c4cc(OC(F)(F)F)ccc4F)CC3)cc2)C1` [Example 63, 2-((2R,4R)-1-(4-(1-(2-Fluoro-5-(trifluoromethoxy)phenyl)piperidin-4-yloxy)phenyl)-4-methoxypyrrolidin-2-yl)acetic acid, TFA], the EC50 came to 2600 nM.

Take `CCOc1ccc(F)c(N2CCC(Oc3ccc(N4C[C@H](Oc5ccccc5C#N)C[C@@H]4CC(=O)O)cc3)CC2)c1` [Example 66, 2-((2R,4R)-4-(2-Cyanophenoxy)-1-(4-(1-(5-ethoxy-2-fluorophenyl)piperidin-4-yloxy)phenyl)pyrrolidin-2-yl)acetic acid]: the EC50 was 1400 nM.

In the case of `CCOc1ccc(F)c(N2CCC(Oc3ccc(N4C[C@H](Oc5ccccc5C)C[C@@H]4CC(=O)O)cc3)CC2)c1` [Example 67, 2-((2R,4R)-1-(4-(1-(5-Ethoxy-2-fluorophenyl)piperidin-4-yloxy)phenyl)-4-(o-tolyloxy)pyrrolidin-2-yl)acetic acid], the EC50 turned out to be 950 nM.

On to `CCOc1ccc(F)c(N2CCC(Oc3ccc(N4C[C@H](Oc5cccc(C#N)c5)C[C@@H]4CC(=O)O)cc3)CC2)c1` [Example 68, 2-((2R,4R)-4-(3-Cyanophenoxy)-1-(4-(1-(5-ethoxy-2-fluorophenyl)piperidin-4-yloxy)phenyl)pyrrolidin-2-yl)acetic acid], for which the EC50 came to 310 nM.

With `CCOc1ccc(F)c(N2CCC(Oc3ccc(N4C[C@H](Oc5cccc(Cl)c5)C[C@@H]4CC(=O)O)cc3)CC2)c1` [Example 69, 2-((2R,4R)-4-(3-Chlorophenoxy)-1-(4-(1-(5-ethoxy-2-fluorophenyl)piperidin-4-yloxy)phenyl)pyrrolidin-2-yl)acetic acid], the EC50 worked out at 160 nM.

For `CCOc1ccc(F)c(N2CCC(Oc3ccc(N4C[C@H](Oc5cccc(C(F)(F)F)c5)C[C@@H]4CC(=O)O)cc3)CC2)c1` [Example 71, 2-((2R,4R)-1-(4-(1-(5-Ethoxy-2-fluorophenyl)piperidin-4-yloxy)phenyl)-4-(3-(trifluoromethyl)phenoxy)pyrrolidin-2-yl)acetic acid], the EC50 came out at 250 nM.

On to `CCOc1ccc(F)c(N2CCC(Oc3ccc(N4C[C@H](Oc5cccc(C)c5)C[C@@H]4CC(=O)O)cc3)CC2)c1` [Example 72, 2-((2R,4R)-1-(4-(1-(5-Ethoxy-2-fluorophenyl)piperidin-4-yloxy)phenyl)-4-(m-tolyloxy)pyrrolidin-2-yl)acetic acid], for which the EC50 turned out to be 170 nM.

As to `CCOc1ccc(F)c(N2CCC(Oc3ccc(N4C[C@H](Oc5ccc(Cl)cc5)C[C@@H]4CC(=O)O)cc3)CC2)c1` [Example 73, 2-((2R,4R)-4-(4-Chlorophenoxy)-1-(4-(1-(5-ethoxy-2-fluorophenyl)piperidin-4-yloxy)phenyl)pyrrolidin-2-yl)acetic acid], the EC50 was determined as 1600 nM.

In the case of `CCOc1ccc(F)c(N2CCC(Oc3ccc(N4C[C@H](Oc5ccc(C)cc5)C[C@@H]4CC(=O)O)cc3)CC2)c1` [Example 74, 2-((2R,4R)-1-(4-(1-(5-Ethoxy-2-fluorophenyl)piperidin-4-yloxy)phenyl)-4-(p-tolyloxy)pyrrolidin-2-yl)acetic acid], the EC50 stood at 1200 nM.

For `CCOc1ccc(F)c(N2CCC(Oc3ccc(N4C[C@H](Oc5ccccn5)C[C@@H]4CC(=O)O)cc3)CC2)c1` [Example 75, 2-((2R,4R)-1-(4-(1-(5-Ethoxy-2-fluorophenyl)piperidin-4-yloxy)phenyl)-4-(pyridin-2-yloxy)pyrrolidin-2-yl)acetic acid, TFA], the EC50 came out at 420 nM.

As for `CCOc1ccc(F)c(N2CCC(Oc3ccc(N4C[C@H](Oc5cccnc5)C[C@@H]4CC(=O)O)cc3)CC2)c1` [Example 76, 2-((2R,4R)-1-(4-(1-(5-Ethoxy-2-fluorophenyl)piperidin-4-yloxy)phenyl)-4-(pyridin-3-yloxy)pyrrolidin-2-yl)acetic acid], the concentration giving a half-maximal response (EC50) was found to be 860 nM.

Regarding `CCOc1ccc(F)c(N2CCC(Oc3ccc(N4C[C@H](Oc5cccc(OC(F)(F)F)c5)C[C@@H]4CC(=O)O)cc3)CC2)c1` [Example 77, 2-((2R,4R)-1-(4-(1-(5-Ethoxy-2-fluorophenyl)piperidin-4-yloxy)phenyl)-4-(3-(trifluoromethoxy)phenoxy)pyrrolidin-2-yl)acetic acid], the EC50 was 140 nM.

Consider `CCOc1ccc(F)c(N2CCC(Oc3ccc(N4C[C@H](Oc5ncccn5)C[C@@H]4CC(=O)O)cc3)CC2)c1` [Example 78, 2-((2R,4R)-1-(4-(1-(5-Ethoxy-2-fluorophenyl)piperidin-4-yloxy)phenyl)-4-(pyrimidin-2-yloxy)pyrrolidin-2-yl)acetic acid, TFA], for which the EC50 was found to be 1600 nM.

For the compound `CCOc1ccc(F)c(N2CCC(Oc3ccc(N4C[C@H](Oc5ccccc5Cl)C[C@@H]4CC(=O)O)cc3)CC2)c1` [Example 79, 2-((2R,4R)-4-(2-Chlorophenoxy)-1-(4-(1-(5-ethoxy-2-fluorophenyl)piperidin-4-yloxy)phenyl)pyrrolidin-2-yl)acetic acid], the EC50 is 740 nM.

As to `CCOc1ccc(F)c(N2CCC(Oc3ccc(N4C[C@H](N(C)S(=O)(=O)c5ccccc5)C[C@@H]4CC(=O)O)cc3)CC2)c1` [Example 80, 2-((2R,4R)-1-(4-(1-(5-Ethoxy-2-fluorophenyl)piperidin-4-yloxy)phenyl)-4-(N-methylphenylsulfonamido)pyrrolidin-2-yl)acetic acid, TFA], the EC50 worked out at 4600 nM.

With `CCOc1ccc(F)c(N2CCC(Oc3ccc(N4C[C@H](n5ccnn5)C[C@@H]4CC(=O)O)cc3)CC2)c1` [Example 81, 2-((2R,4R)-1-(4-(1-(5-Ethoxy-2-fluorophenyl)piperidin-4-yloxy)phenyl)-4-(1H-1,2,3-triazol-1-yl)pyrrolidin-2-yl)acetic acid], the EC50 turned out to be 1000 nM.

Take `COc1ccc(C2CCC2)c(N2CCC(Oc3ccc(N4C[C@H](OC)C[C@@H]4CC(=O)O)cc3)CC2)c1` [Example 82, 2-((2R,4R)-1-(4-((1-(2-Cyclobutyl-5-methoxyphenyl)piperidin-4-yl)oxy)phenyl)-4-methoxypyrrolidin-2-yl)acetic acid, HCl]: the EC50 worked out at 310 nM.

`COc1cc(N2CCC(Oc3ccc(N4C[C@H](OC)C[C@@H]4CC(=O)O)cc3)CC2)c2nccn2n1` [Example 86, 2-((2R,4R)-4-Methoxy-1-(4-((1-(6-methoxyimidazo[1,2-b]pyridazin-8-yl)piperidin-4-yl)oxy)phenyl)pyrrolidin-2-yl)acetic acid, TFA]: the EC50 was determined as 4700 nM.
